How the values were obtained:
Type in all cases: physicochemical
[1] = Solubilization of resins in the test solvent: BADGE DER 331; settings: BADGE DER 331 in the compound as solvent
Experimental: (§1) The following table lists the solubilities obtained for four resins tested: BADGE DER 331 epoxy resin sold by DOW CHEMICAL, Palatal A400-01 polyester resin sold by DSM, Novolac DEN 425 epoxy resin sold by DOW CHEMICAL and TGPA resin available from Sigma Aldrich.
(§2) A single solubility test was carried out per solvent/resin pair, at a working concentration of 100 g/l, at ambient temperature. The tests were carried out on the milliliter scale (i.e., 0.5 g/5 ml). The tests are carried out in transparent glass flasks. The resin (0.5 g) is weighed into the flask and then the required volume (5 ml) of test solvent is introduced into this same flask. Stirring is carried out using a vortex mixer for 1 to 5 minutes. The results for solubility of the resins in the solvents tested, shown in the table below, are obtained by visual observations.

[2] = Solubilization of resins in the test solvent: TGPA; settings: TGPA in the compound as solvent, visual
Experimental: as §1, §2

[3] = Solubilization of resins in the test solvent: Palatal A400-01; settings: Palatal A400-01 in the compound as solvent
Experimental: as §1, §2

[4] = Solubilization of resins in the test solvent: Novolac DEN 425; settings: Novolac DEN 425 in the compound as solvent
Experimental: as §1, §2

[5] = adjusted protocol: solvent heated on a water bath at 30° C. before the test

Row | SMILES | Solubility at ambient temperature (100 g/l) ([1]; ambient temperature, visual) | Solubility at ambient temperature (100 g/l) [2] | Solubility at ambient temperature (100 g/l) ([3]; ambient temperature, visual) | Solubility at ambient temperature (100 g/l) ([4]; ambient temperature, visual) | Solubility at ambient temperature (100 g/l) [1, 5] | Solubility at ambient temperature (100 g/l) [3, 5] | Solubility at ambient temperature (100 g/l) [4, 5]
1 | CCCCCCCCN=Cc1ccco1 [(16)] | Partial | Soluble | Soluble | Soluble |  |  | 
2 | CCCCCOC(=O)c1ccco1 [(9)] | Soluble | Soluble | Soluble | Soluble |  |  | 
3 | COC(=O)c1ccco1 [(8)] | Soluble | Soluble | Soluble | Soluble |  |  | 
4 | CC(=O)/C=C/c1ccco1 [(1)] |  |  |  |  | Soluble* | Soluble* | Soluble*
5 | CCCCN=Cc1ccco1 [(15)] | Partial | Soluble | Soluble | Soluble |  |  | 
6 | Cc1ccc(C=O)o1 [(17)] | Soluble | Soluble | Soluble | Soluble |  |  | 
7 | CC(C)C(=O)/C=C/c1ccco1 [(3)] | Soluble | Soluble | Soluble | Soluble |  |  | 
8 | CCCOC(=O)c1ccco1 [(6)] | Partial |  | Soluble | Soluble |  |  | 
9 | O=C(OCCc1ccccc1)c1ccco1 [(10)] | Soluble | Soluble | Soluble | Soluble |  |  | 
